# What was measured:
# Rb, phRB and E2F1 = assay: Western blot of UMUC cells treated with cell cycle inhibitors; type: cell-based, human; conditions: 24 hours post-treatment, LEE-011 at 10 μM, MI-1040 at 1 μM
# Method: Western Blot analysis of UMUC cells treated with indicated concentrations of CI-1040, Roscovitine, Nutlin-3a and LEE011 (Ribociclib). 1×10^6 cells were seeded in 10 cm dishes. 24 hours post-treatment proteins were isolated using 1% SDS buffer, to achieve the disruption of the nuclear membrane. All samples were drawn up several times into a syringe to disrupt the DNA and subsequently centrifuged at 30000 rpm at 4° C. for 30 minutes. The supernatant was transferred to a new reaction tube and directly used for further steps or stored at −80° C. To separate the proteins a sodium dodecyl sulfate polyacrylamide gel electrophoresis was performed. By means of electrophoresis for approximately two hours at 100V at 4° C., 40 μg of total proteins were loaded and probed against specific indicated antibodies.
# UMUC3 cells = assay: Cell cycle analysis (flow cytometry) of UMUC3 cells; type: cell-based, human; conditions: UMUC3, 48 hours; Roscovitine 10 μM, CI-1040 1 μM, Nutlin-3a 10 μM, LEE011 10 μM; 10 MOI dl703
# Method: FIG. 10 is a bar diagram showing cell cycle distribution in UMUC3 cells, measured 48 hours post treatment, whereby the concentrations of the […] inhibitors was as follows: Roscovitine: 10 μM, CI-1040: 1 μM, Nutlin-3a: 10 μM, and LEE011: 10 μM.
# For cell cycle analysis cells were seeded in 6 well plates (2.5×10E4 c/well). 8 hours before infection with dl703, cells were treated with indicated concentration of cell cycle inhibitors. After infection with 10 MOI dl703 cells were again treated for 48 hours. Untreated cells and dl703 infected cells only, served as control. 48h post infection cells were harvest by trypsinization and fixed with 80% ethanol while vortexing. To investigate the cell cycle status, fixed cells were centrifuged 5 min at RT and 300 g and ethanol was aspirated. Cells were resuspended and washed with 1% BSA-PBS (Bovine Serum Albumin) and again centrifuged. Cells were stained with EDU and cell cycle analysis were performed using the Click-iT™ Plus EdU Flow Cytometry Assay Kits, Catalog nos. C10632 from Thermo Fischer. In addition, after 3× times washing with 1% BSA/PBS cells were stained with PI (Propidium Iodine, 50 μg/ml). Measurement was directly performed after staining with a FACScalibur Flow Cytometry System. Data was analyzed with FlowJo software.
# RT112 = assay: IC50 concentration of PD-0332991; type: cell-based; conditions: Homo sapiens, RT-112
# Method: (§1) The class of CDK4/6 inhibitors as subject to Example 5 requires expression of RB. Therefor, three RB positive and two RB negative bladder cancer derived cell lines were used and the cells treated with the combination therapy. Cell lines were pretreated for 24 hours with an IC50 concentration of PD-0332991 (T24: 500 nM, RT112: 2000 nM, 253J: 100 nM) and infected with XVir-N-31 (T24 MOI50, 253J MOI 25, RT112 MOI450). Values are the average of at least 2 independent experiments. Error bars show the standard error. Four dpi, cell viability was measured using SRB assays (a, c). (b, d) Lysates of cells were prepared 3 dpi and a titer test was performed on Hek293 cells. Viral titer is shown as fold change relative to control
# 253J = assay: IC50 concentration of PD-0332991; type: cell-based; conditions: Homo sapiens
# Method: as §1
# T24 = assay: IC50 concentration of PD-0332991; type: cell-based; conditions: Homo sapiens, T-24
# Method: as §1
# dl703 = assay: E1A-independent viral DNA replication of dl703 (fiber qPCR); type: cell-based, Mastadenovirus, Type C, Serotype 5; conditions: UMUC cells, 1 μM CI-1040, 50 MOI dl703, 48 hours post infection
# Method: To investigate the differences in replication of dl703 (Mantwill et al. 2013, Journal of Translational Medicine, 11, 216) under different treatment conditions, DNA-replication analysis was performed. 100,000 UMUC cells were seeded in 6-well plates and grown in DMEM medium containing 10% FCS in 5% CO2 conditions at 37° C. 24 hours post seeding cells were treated for 24 hours with 10 μM Lee (Ribociclib), 1 μM CI-1040, 10 μM Nutlin-3a and 10 μM Roscovertine and again after infection adding an appropriate amount of inhibitors to the medium. Infection with 50 MOI dl703 (Mastadenovirus, Type C, Serotype 5 with a 3.2 kb sized deletion in E1 region) took place 24 hours post treatment. After 4 and 48 hours post infection DNA were isolated and qPCR was performed using specific primers for the viral fiber gene. Fiber fwd. 5′-[…]-3′ (SEQ ID NO: 17); Fiber rev. 5′-[…]-3′ (SEQ ID NO: 18).
# T24 and UMUC-3 = assay: FACS cell cycle analysis, Talazoparib and Palbociclib; type: cell-based, human; conditions: T24 and UMUC-3, 48 hours
# Method: The influence of the applied small molecule inhibitors at their indicated concentrations on the cell cycle of bladder cancer cell lines T24 and UMUC-3 was analysed via flow cytometry analysis after DNA staining. 5×10^4 cells were seeded in 6-well plates and 24 hours later treated with appropriate inhibitors. Two days later, at approximately 80% confluency, cells were washed with PBS, trypsinized, washed again and fixated with icecold 80% ethanol. For cell cycle analysis, samples were incubated with the DNA-intercalating dye 7-aminoactinomycine D (7-AAD) and measured via FACS analysis. Evaluation of measured data was performed via the software FlowJo.
# T24 cells [1] = assay: Potency assay (SRB), XVir-N-31, Palbociclib and PARP inhibitor; type: cell-based; conditions: Homo sapiens, T-24, read-out: IC-80 value
# Method: 12,500 T24 cells were seeded per well in 12-well plates and grown over-night in RPMI Medium containing 10% FCS at 37° C. Inhibitor-treatment of cells occurred 24 h past cell seeding and again 1 hour after infection by adding indicated concentration to the medium. Infection of cells took place 24 h past inhibitor-treatment in 250 μl medium without serum. Fixation and SRB-staining took place at 4 days post infection. PD, Palbociclib; PARPi: BMN673.
# For SRB staining, the medium was removed by aspiration. Cells were fixed with 1 ml (per well) 10% cold TCA at 4° C. for 1 hour. TCA was removed by aspiration and cell layers were washed 4× with tap water. Cells were stained with 1 ml (per well) 0.5% SRB (sulforhodamine B) in 1% acetic acid for 30 min. Unbound SRB was removed in five washing steps with 1 ml 1% acetic acid/well; after each washing step, acetic acid was removed by aspiration. Plates were air-dried for 2 hrs. To solubilize the SRB stained cells, 200 μl of 10 mM Tris base was added to each well. […] The 96 well plate was loaded into an Elisa-plate reader and absorption of the samples was measured at 560 nm. […]
# In order to show the kinetics of a triple therapy of T24 cells using triple therapy comprising XVir-N-31, Palbociclib and a PARP inhibitor (BMN673 (Talazoparib)), a potency assay was carried out and the potency assessed at different points in time. […]
# UMUC-3 = assay: as above; type: cell-based; conditions: Homo sapiens; UMUC3 cells; read-out: IC-80 value
# Method: Seeding of UMUC-3: 3000 cells were seeded per well in 12-well plates and grown over-night in DMEM Medium containing 10% FCS at 37° C. Inhibitor-treatment of cell occurred 24 h past seeding and again 1 hour after infection by adding indicated concentration to the medium. Infection of cells took place 24 h past inhibitor-treatment. Fixation and SRB-staining took place at 1-6 days post infection (dpi: days post infection). 160 nM PARPi correspond to the IC-80 value in UMUC3 cells.
# SK-N-MC cells = assay: Cell cycle distribution (propidium iodine) of SK-N-MC cells; type: cell-based; conditions: 48 hours post treatment, MK-1775 at 500 nM
# Method: 48 hours post treatment cells were washed twice took place with PBS (containing RNase A, 100 U/ml). Cells were trypsinized and centrifuged at 1500 rpm, 4° C. for 5 min. Cells are fixed by adding slowly 1 ml of ice-cold 80% Ethanol drop by drop to the pellet and incubated overnight. Staining was performed by adding 1 ml of staining solution (Propidium Iodine, 50 μg/ml) to the cells and incubating 30-60 min at RT with gentle rocking. MK: MK-1775; LY: LY-2835219.
# T24 cells [2] = assay: Potency assay/SRB staining, XVir-N-31, Nutlin-3a and Palbociclib; type: cell-based, human; conditions: T24, 30 μM Nutlin-3a, 500 nM Palbociclib, four dpi
# Method: (§2) Cell killing using XVir-N-31 alone and in combination with small molecule inhibitors was analysed in 12-well plates. […] At 1 hpi, complete medium with Palbociclib was added to the cells pretreated with Palbociclib. To the control as well as to the Nutlin treated cell complete medium without inhibitors was added.
# A potency assay using T24 cells was carried out for determining the cell killing effect of XVir-N-31 alone, XVir-N-31 with Nutlin-3a, XVir-N-31 with Palbociclib, and XVir-N-31 with both Nutlin-3a and Palbociclib.
# T24shRB cells = assay: as above; type: cell-based, human; conditions: 30 μM Nutlin-3a, 500 nM Palbociclib, four dpi
# Method: as §2
# The same potency assay as subject to Example 27.2 was carried out using T24shRB cells. T24shRB cells are T24 cells without Rb expression. Such lacking Rb expression was generated by means of lentiviral transfection, wherein the lentivirus coded for shRNA directed to Rb. The lentivirus vector used was pLKO-RB1-shRNA19 (obtained from Addgene, Watertown, Mass. 02472, USA), the sequence of the shRNA was as follows […] (SEQ ID NO: 39). The procedure is also described by Michaud K et al. (Cancer Res. 2010 Apr. 15. 70(8):3228-38).
# XVir-N-31 = XVir-N-31 fiber DNA qPCR with BET inhibitors and BET degraders; type: cell-based, Mastadenovirus, Type C, Serotype 5; conditions: UMUC-3 (MOI 10) and RT112 (MOI 50), 24 hours post infection
# Method: 3×10^4 UMUC-3 cells and 4×10^4 RT112 cells were seeded in 12 well plates in DMEM and RPMI medium. The following day the cells were pretreated with BETi and BETd. 48 hours post seeding the cells were infected with 10 MOI for UMUC-3 and 50 MOI for RT112 and treated with the indicated concentration of BETi and BETd. After each timepoint (4, 24 hour) the cells were washed once with PBS and 200 μl of SDS DNA Lysis Buffer was added. The cells were incubated with Proteinase K before undergoing a Phenol-Chloroform-Isoamylalcohol purification. The DNA was diluted in DNase free water and the concentration of the DNA was determined using a Nanodrop. For each sample a solution of 15 ng/μl was prepared and a RT-qPCR using 75 ng of DNA and a GoTaq Master mix. Specific Fiber forward and reverse primers were used and for the calculation of the Δ ct value specific Actin primers were used as well. For each sample 3 Fiber and 3 Actin values were measured. The calculation was done in excel and each 24 hours was calculated based on its 4 hours value (initial viral entry, before replication).
compound,measurement,setting,value
CC[C@H](CO)Nc1nc(NCc2ccccc2)c2ncn(C(C)C)c2n1 [Roscovitine],"Rb, phRB and E2F1 expression","Rb, phRB and E2F1",no pronounced effect
same,cell cycle distribution,UMUC3 cells,slight increase of G2/m arrested cells
CC(=O)c1c(C)c2cnc(Nc3ccc(N4CCNCC4)cn3)nc2n(C2CCCC2)c1=O [Palbociclib],IC50,RT112,2000 nM
same,IC50,253J,100 nM
same,IC50,T24,500 nM
O=C(NOCC1CC1)c1ccc(F)c(F)c1Nc1ccc(I)cc1Cl [CI-1040],viral DNA replication of dl703,dl703,much lower compared to Ribociclib treated cells
same,"Rb, phRB and E2F1 expression","Rb, phRB and E2F1",induced inhibition
same,cell cycle distribution,UMUC3 cells,clear G1-arrest
Cn1ncnc1[C@H]1c2n[nH]c(=O)c3cc(F)cc(c23)N[C@@H]1c1ccc(F)cc1 [PARPi],G1 arrest on addition of Talazoparib,T24 and UMUC-3,not influenced
same,IC80,T24 cells [1],15 nM
same,IC80,UMUC-3,160 nM
CCN1CCN(Cc2ccc(Nc3ncc(F)c(-c4cc(F)c5nc(C)n(C(C)C)c5c4)n3)nc2)CC1 [Abemaciclib],cell cycle,SK-N-MC cells,no effect
COc1ccc(C2=N[C@@H](c3ccc(Cl)cc3)[C@@H](c3ccc(Cl)cc3)N2C(=O)N2CCNC(=O)C2)c(OC(C)C)c1 [Nutlin-3a],cell killing by XVir-N-31,T24 cells [2],enhanced cell killing
same,"Rb, phRB and E2F1 expression","Rb, phRB and E2F1",no pronounced effect
same,killing of Rb-negative cells by XVir-N-31,T24shRB cells,not effective
same,cell cycle distribution,UMUC3 cells,only little or no effect on the cell cycle
C=CCn1c(=O)c2cnc(Nc3ccc(N4CCN(C)CC4)cc3)nc2n1-c1cccc(C(C)(C)O)n1 [MK-1775],cell cycle,SK-N-MC cells,increase of cells in G2/M
COc1nnc2ccc(N3CCC(c4ccc(OCCN5CCN(C)C(=O)[C@H]5C)cc4)CC3)nn12 [AZD5153],replication of XVir-N-31,XVir-N-31,highest

# — patent publication US20220354911A1, “TREATMENT OF TUMORS BY A COMBINATION OF AN ONCOLYTIC ADENOVIRUS, A CDK4/6 INHIBITOR AND A FURTHER THERAPEUTICALLY ACTIVE AGENT” (KLINIKUM RECHTS DER ISAR DER TECHNISCHEN UNIVERSITÄT MÜNCHEN, priority 2019, published 2022)
